Assay results from paper PMC9469500, “Targeting an Initiator Allergen Provides Durable and Expansive Protection against House Dust Mite Allergy” (ACS Pharmacology & Translational Science, 2022).

Legend:
[1] = test system: rats sensitized to the HDM allergen extract; test: HDM extract challenge in rats sensitized to the HDM allergen extract (BAL cells and mediators); assay type: in vivo, BN rats
Text: Control animals received saline vehicle treatment.

[2] = HDM 1, dosed 2 or 4 h before challenge, BAL 48 h
[3] = HDM 10, single i.t. aerosol dose 2 h before (15 μg/kg compound 1, 46 μg/kg compound 2), BAL 48 h
[4] = stronger challenge HDM 10, 15 μg/kg i.t. aerosol 2 h prior

bioavailability (Pharmacokinetics in rats; male, Sprague-Dawley, rat, plasma, po, 5 mg/kg): 39%
half-life (Pharmacokinetics in rats; male, Sprague-Dawley, rat, plasma, po, 5 mg/kg, rat p.o., fasted): 126 min
half-life (Pharmacokinetics in rats; male, Sprague-Dawley, rat, plasma, po, 5 mg/kg, rat p.o., fed): 174 min
volume of distribution (Pharmacokinetics in rats; rat p.o.): 0.9 L/kg
clearance (Pharmacokinetics in rats; rat p.o., fasted): 27 (fasted) mL/min/kg
Compound: CC(C)[C@H](NC(=O)[C@H](C)NC(=O)[C@@H](NC(=O)c1ccccc1)C(C)(C)C)C(=O)C(=O)NCc1ccccc1 [Compound 1, N-{(S)-1-[(S)-1-((S)-1-benzylaminooxalyl-2-methyl-propylcarbamoyl)-ethylcarbamoyl]-2,2-dimethyl-propyl}-benzamide]
BAL eosinophil responses ([1]; HDM 1 (1 μg Der p 1), dosed i.t. aerosol 2 or 4 h before challenge, BAL 48 h): suppressed
BAL neutrophil recruitment [1, 2]: No effect
CCL-2 in BAL fluid [1, 2]: suppressed
CCL-20 in BAL fluid [1, 2]: suppressed
IL-13 in BAL fluid [1, 2]: suppressed
IL-33 in BAL fluid [1, 2]: suppressed
TSLP in BAL fluid ([1]; HDM 1, dosed 2 h before challenge, BAL 48 h): suppressed
TSLP in BAL fluid ([1]; HDM 1, dosed 4 h before challenge, BAL 48 h, 'except' = not suppressed): except for TSLP
changes in BAL cells after HDM challenge ([1]; HDM 10 (10 μg Der p 1) i.t. aerosol, single i.t. aerosol dose 2 h before (15 μg/kg compound 1, 46 μg/kg compound 2), BAL 48 h): attenuated
BAL eosinophils after HDM challenge [1, 3]: eosinophil suppression
BAL monocytes/macrophages after HDM challenge [1, 3]: No effects
BAL neutrophil responses after HDM challenge [1, 3]: not significant
IL-6 responses in BAL [1, 4]: unaffected
IL-13 in BAL [1, 4]: inhibitory effects
IL-33 in BAL [1, 4]: inhibitory effects
TSLP in BAL [1, 4]: inhibitory effects
